Experimental findings from ChEMBL document CHEMBL1158051, “Russujaponols A-F, illudoid sesquiterpenes from the fruiting body of Russula japonica” (2006) are described below.

For assay [1], the system named is HT-1080. Briefly: Inhibition of invasion of human HT1080 cells into Matrigel at 3.73 uM. The format is functional.
The test system of assay [2] is HT-1080. Kind of assay: Inhibition of invasion of human HT1080 cells into Matrigel at 0.17 uM. The assay is classed as functional.

Molecules are shown by their SMILES.

As usually defined, the inhibition is the percentage by which the read-out fell short of the control. Take `C[C@H]1C(=O)[C@@H]2C[C@](C)(CO)C[C@]2(O)[C@@]2(C)CC[C@@]12O` [RUSSUJAPONOL A]: the inhibition at 3.73 µM in assay [1] turned out to be 63%. For `COc1cccc2c1C(=O)c1c(O)c3c(c(O)c1C2=O)C[C@@](O)(C(=O)CO)C[C@@H]3O[C@H]1C[C@H](N)[C@H](O)[C@H](C)O1` [DOXORUBICIN], the inhibition at 0.17 µM in assay [2] turned out to be 52%.
